Measured values reported in article PMC8903829 (eLife, 2022).
“And” between values parts separate entries of the source, which are not always exact repeats. Equal entries are not always repeated. Where two headings read alike, the source gives them in different places.

Experiments:
Scn8a^N1768D/+ mice = experiment: Modified 6 Hz psychomotor seizure assay; assay type: in vivo, mouse; conditions: for SCN8a mouse 6Hz chronic, Fraction of animals seizing: day 7, 2 hr after 13th dose; for SCN8a mouse 6Hz acute, Fraction of animals seizing: 2 hr; for EC50: Scn8a^N1768D/+ 6 Hz model
Procedure: Phenytoin was formulated in physiologic saline and was administered intraperitoneally (i.p.) using a 25-gauge needle at a dose volume of 10 mL/kg. All compounds were administered 2 hr prior to electrical seizure induction for all seizure models employed in this study.
Scn8a^N1768D/+heterozygous mice were tested at 5 weeks of age (p35). The modified 6 Hz seizure assay in Scn8a^N1768D/+heterozygous mice was adapted from the traditional 6 Hz assay psychomotor seizure assay to provide a measure of in vivo on target (NaV1.6 mediated) efficacy ([Barton et al., 2001]). The modified assay used a low frequency (6 Hz) but long-duration stimulation (3 s) to induce seizures. […] An electroshock (6 Hz, 12 mA) was delivered for 3 s (at 0.3-ms pulse interval) by corneal electrodes (Electro Convulsive Therapy Unit 57,800 from Ugo Basile). Immediately prior to the electroshock, the animals’ eyes were anesthetized with a drop of Alcaine (0.5% proparacaine hydrochloride).
An animal was considered protected in the assay upon prevention of GTC with hindlimb extension and was then scored ‘0’. An animal displaying GTC with hindlimb extension was considered not protected and is then scored ‘1’. The experimenter scoring the seizure behavior was blinded to the treatment.

[1] = Bioanalytical assessment of plasma and brain concentrations after 6 Hz assay; assay type: in vivo, mouse; conditions: for Mean [Plasma] / Mean [Brain] / concentration at 2 hr: Scn8a mice; for concentration at 2 hr: mouse, po
Procedure: Approximately 0.5 mL of blood was collected from each mouse at the end of the assay via cardiac puncture under deep anesthesia. The blood samples were collected in a syringe and transferred to tubes containing EDTA. Blood was stored at 4 °C until centrifuged within 30 min of collection. Plasma was harvested and placed on dry ice and stored in a freezer set to maintain a temperature of –70°C to –80°C until analysis. Brains were harvested immediately after blood collection and placed on dry ice prior to storage in a freezer set to maintain a temperature of –70°C to –80°C until analysis.
Extraction of plasma samples was carried out by protein precipitation using acetonitrile. Plasma samples (50 µL) were mixed with 50 µL of internal standard (IS) solution in water followed by addition of 10 µL of concentrated ortho-phosphoric acid and 200 µL of acetonitrile. Samples were vortexed for 30 seconds, centrifuged at 13,000 rpm for 20 min, decanted in to a 96-well plate, and further centrifuged at 4000 rpm for 20 min. The samples were analyzed by UHPLC-ESI-MS/MS as described below.
Prior to extraction, pre-weighed whole brains were homogenized in 1:1 acetonitrile/water (v/v) (4 mL per mouse brain) using an IKA T18 ULTRA-TURRAX Homogenizer at the setting of 4 for approximately 2 min. The homogenate was centrifuged at 13,000 rpm for 20 min and 50 µL of the supernatant were treated exactly as described above for plasma samples. […]
Samples were analyzed by UHPLC-ESI MS/MS using a TQ-5500 Sciex triple quadrupole mass spectrometer equipped with a Shimadzu Nexera UHPLC pump and auto-sampler system using an ACE C18 PFP, 2.50 × 50 mm, 1.7 µm particle size column and gradient elution consisting of solvent A (0.1% formic acid in water) and solvent B (0.1% formic acid in acetonitrile) starting at 20% B from 0 min to 0.4 min and then increased to 100% B from 0.4 min to 0.6 min. At 2.0 min, the mobile phase composition was switched back to […] for 1 min. The flow rate used throughout the experiment was […]. […] The UHPLC-ESI MS/MS system was controlled by Analyst 1.6.
Sample concentrations were determined using a linear calibration function, weighted 1 /X, generated by the regression of analyte to IS peak area ratios in the standard samples to their respective concentrations. Acceptance criteria for the analytical run required that the back calculated values of the standards and the QC samples fell within ±20% of their nominal values, except for the lowest standard or lower limit of quantitation (LLOQ), for which the acceptance criterion was ±25%. At least 6 out of 12 standard points had to show back-calculated values within ±20% of their nominal concentrations for the calibration to be accepted. At least three QC samples, one at each level, had to show back-calculated values within ±20% of their nominal concentrations for the whole sample batch to be valid.

[2] = 6 mg/kg PO every 12 hr, day 7, 2 hr after 13th dose, 6 mg/kg
[3] = 100 mg/kg PO single dose, after assay 2 hr post dose, 100 mg/kg

Cc1cc(S(=O)(=O)Nc2cscn2)c(F)cc1N(C)[C@H]1CCN(Cc2ccccc2)C1 [NBI-921352]
SCN8a mouse 6Hz chronic, Fraction of animals seizing (Scn8a^N1768D/+ mice; 2 mg/kg PO every 12 hr): 0.5
SCN8a mouse 6Hz acute, Fraction of animals seizing (Scn8a^N1768D/+ mice; 2 mg/kg PO single dose): 0.8
SCN8a mouse 6Hz acute, Fraction of animals seizing (Scn8a^N1768D/+ mice; 3 mg/kg PO single dose): 0.8
SCN8a mouse 6Hz chronic, Fraction of animals seizing (Scn8a^N1768D/+ mice; 6 mg/kg PO every 12 hr): 0.34 and 0.429 and 0.5
SCN8a mouse 6Hz acute, Fraction of animals seizing (Scn8a^N1768D/+ mice; 6 mg/kg PO single dose): 0.5 and 0.667 and 0.834 and 0.715
SCN8a mouse 6Hz acute, Fraction of animals seizing (Scn8a^N1768D/+ mice; 10 mg/kg PO single dose): 0.57 and 0.4
SCN8a mouse 6Hz acute, Fraction of animals seizing (Scn8a^N1768D/+ mice; 30 mg/kg PO single dose): 0.43 and 0.5 and 0.333 and 0.4
SCN8a mouse 6Hz acute, Fraction of animals seizing (Scn8a^N1768D/+ mice; 200 mg/kg PO single dose): 0
SCN8a mouse 6Hz acute, Fraction of animals seizing (Scn8a^N1768D/+ mice; 300 mg/kg PO single dose): 0
EC50 (Scn8a^N1768D/+ mice; Mus musculus, 2 hr post dose (oral; phenytoin i.p.), read-out: brain EC50): 64 nM
EC50 (Scn8a^N1768D/+ mice; Mus musculus, 2 hr post dose, read-out: plasma EC50): 37 nM
ED50 (Scn8a^N1768D/+ mice; Mus musculus, oral, 2 hr prior to stimulation, read-out: ED50, prevention of GTC with hindlimb extension): 15 mg/kg
Mean [Plasma] ([1]; 3 mg/kg PO single dose, after assay 2 hr post dose, 3 mg/kg): 0.003985 µM
Mean [Brain] [1, 2]: 0.02201 µM and 0.01923 µM
Mean [Plasma] [1, 2]: 0.01663 µM and 0.02029 µM
Mean [Plasma] ([1]; 10 mg/kg PO single dose, after assay 2 hr post dose, 10 mg/kg): 0.01541 µM
Mean [Brain] ([1]; 30 mg/kg PO single dose, after assay 2 hr post dose, 30 mg/kg): 0.133 µM and 0.1224 µM and 0.09287 µM and 0.1253 µM
Mean [Brain] [1, 3]: 0.3467 µM
Mean [Plasma] [1, 3]: 0.5385 µM
concentration at 2 hr ([1]; Scn8a^N1768D/+ (heterozygous gain-of-function knock-in line), brain, 30 mg/kg, 30 mg/kg PO single dose, after assay 2 hr post dose, read-out: Mean [Brain]): 96.6 nM
concentration at 2 hr ([1]; Scn8a^N1768D/+ (heterozygous gain-of-function knock-in line), brain, 100 mg/kg, 100 mg/kg PO single dose, after assay 2 hr post dose, read-out: Mean [Brain]): 357 nM
concentration at 2 hr ([1]; Scn8a^N1768D/+ (heterozygous gain-of-function knock-in line), plasma, 3 mg/kg, 3 mg/kg PO single dose, after assay 2 hr post dose, read-out: Mean [Plasma]): 3.45 nM
concentration at 2 hr ([1]; Scn8a^N1768D/+ (heterozygous gain-of-function knock-in line), plasma, 10 mg/kg, 10 mg/kg PO single dose, after assay 2 hr post dose, read-out: Mean [Plasma]): 9.56 nM
concentration at 2 hr ([1]; Scn8a^N1768D/+ (heterozygous gain-of-function knock-in line), plasma, 100 mg/kg, 100 mg/kg PO single dose, after assay 2 hr post dose, read-out: Mean [Plasma]): 717 nM
concentration at 2 hr ([1]; Scn8a^N1768D/+, brain, 2 mg/kg, 2 mg/kg PO every 12 hr, day 7, 2 hr after 13th dose, read-out: Mean [Brain]): 10.5 nM
concentration at 2 hr ([1]; Scn8a^N1768D/+, brain, 2 mg/kg, 2 mg/kg PO single dose, after assay 2 hr post dose, read-out: Mean [Brain]): 8.02 nM
concentration at 2 hr ([1]; Scn8a^N1768D/+, brain, 6 mg/kg, 6 mg/kg PO every 12 hr, day 7, 2 hr after 13th dose, read-out: Mean [Brain]): 28.8 nM
concentration at 2 hr ([1]; Scn8a^N1768D/+, brain, 200 mg/kg, 200 mg/kg PO single dose, after assay 2 hr post dose, read-out: Mean [Brain]): 3850 nM
concentration at 2 hr ([1]; Scn8a^N1768D/+, brain, 300 mg/kg, 300 mg/kg PO single dose, after assay 2 hr post dose, read-out: Mean [Brain]): 6940 nM
concentration at 2 hr ([1]; Scn8a^N1768D/+, plasma, 2 mg/kg, 2 mg/kg PO every 12 hr, day 7, 2 hr after 13th dose, read-out: Mean [Plasma]): 2.95 nM
concentration at 2 hr ([1]; Scn8a^N1768D/+, plasma, 2 mg/kg, 2 mg/kg PO single dose, after assay 2 hr post dose, read-out: Mean [Plasma]): 1.08 nM
concentration at 2 hr ([1]; Scn8a^N1768D/+, plasma, 6 mg/kg, 6 mg/kg PO every 12 hr, day 7, 2 hr after 13th dose, read-out: Mean [Plasma]): 13.2 nM
concentration at 2 hr ([1]; Scn8a^N1768D/+, plasma, 200 mg/kg, 200 mg/kg PO single dose, after assay 2 hr post dose, read-out: Mean [Plasma]): 12600 nM
concentration at 2 hr ([1]; Scn8a^N1768D/+, plasma, 300 mg/kg, 300 mg/kg PO single dose, after assay 2 hr post dose, read-out: Mean [Plasma]): 31500 nM
accumulation in the plasma or tissue on repeated dosing ([1]; every 12 hr for 13 doses, mice and rats): did not appreciably accumulate
